For two molecules, Activity results are on record in ChEMBL document CHEMBL2074341, “Biliary excretion of flavopiridol and its glucuronides in the isolated perfused rat liver: role of multidrug resistance protein 2 (Mrp2)” (Life Sci, 2003).

This data set has as its target ATP-binding cassette sub-family C member 2 (Rattus norvegicus, UniProt Q63120). Briefly: TP_TRANSPORTER: transport activity, in vitro, Wistar vs TR-. Format: functional.

ATP-binding cassette sub-family C member 2, sequence (Q63120 whole entry): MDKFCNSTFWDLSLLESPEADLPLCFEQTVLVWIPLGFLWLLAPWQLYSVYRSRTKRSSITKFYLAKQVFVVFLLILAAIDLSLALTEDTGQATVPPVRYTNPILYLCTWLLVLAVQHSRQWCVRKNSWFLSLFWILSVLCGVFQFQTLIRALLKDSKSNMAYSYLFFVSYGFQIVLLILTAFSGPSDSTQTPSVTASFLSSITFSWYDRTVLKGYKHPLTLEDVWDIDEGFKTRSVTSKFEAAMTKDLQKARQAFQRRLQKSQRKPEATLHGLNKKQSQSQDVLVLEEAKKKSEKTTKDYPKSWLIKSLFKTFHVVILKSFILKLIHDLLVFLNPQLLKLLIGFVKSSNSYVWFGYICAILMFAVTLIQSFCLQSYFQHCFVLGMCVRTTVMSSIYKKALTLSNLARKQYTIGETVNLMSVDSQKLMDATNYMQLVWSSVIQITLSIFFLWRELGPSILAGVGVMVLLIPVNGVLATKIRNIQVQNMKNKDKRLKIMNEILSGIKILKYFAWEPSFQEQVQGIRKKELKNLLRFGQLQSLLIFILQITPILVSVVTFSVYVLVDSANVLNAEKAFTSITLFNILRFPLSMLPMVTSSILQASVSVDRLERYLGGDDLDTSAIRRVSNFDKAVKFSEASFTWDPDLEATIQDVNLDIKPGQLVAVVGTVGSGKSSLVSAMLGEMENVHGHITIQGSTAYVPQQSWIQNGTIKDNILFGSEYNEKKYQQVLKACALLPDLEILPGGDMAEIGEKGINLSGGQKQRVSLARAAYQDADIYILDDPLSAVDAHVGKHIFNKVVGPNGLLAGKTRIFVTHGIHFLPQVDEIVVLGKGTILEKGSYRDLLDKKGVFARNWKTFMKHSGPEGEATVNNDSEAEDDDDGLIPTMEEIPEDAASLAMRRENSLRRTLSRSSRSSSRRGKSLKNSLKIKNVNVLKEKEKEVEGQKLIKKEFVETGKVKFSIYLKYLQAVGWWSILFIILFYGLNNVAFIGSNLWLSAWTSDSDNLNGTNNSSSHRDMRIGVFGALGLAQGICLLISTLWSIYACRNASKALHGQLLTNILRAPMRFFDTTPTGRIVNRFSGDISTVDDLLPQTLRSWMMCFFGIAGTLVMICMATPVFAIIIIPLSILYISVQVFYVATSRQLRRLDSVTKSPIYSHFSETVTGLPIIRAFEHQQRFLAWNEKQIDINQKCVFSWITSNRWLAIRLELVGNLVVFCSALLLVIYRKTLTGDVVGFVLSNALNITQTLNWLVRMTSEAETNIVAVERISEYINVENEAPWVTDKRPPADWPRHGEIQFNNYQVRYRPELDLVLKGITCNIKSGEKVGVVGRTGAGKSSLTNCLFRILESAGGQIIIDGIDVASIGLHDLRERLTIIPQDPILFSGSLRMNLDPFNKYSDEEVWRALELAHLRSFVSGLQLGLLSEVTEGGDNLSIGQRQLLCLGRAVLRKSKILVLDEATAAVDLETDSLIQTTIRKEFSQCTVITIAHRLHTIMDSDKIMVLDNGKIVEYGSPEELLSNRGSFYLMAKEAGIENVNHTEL

As for `CN1CC[C@H](c2c(O[C@@H]3O[C@H](C(=O)O)[C@@H](O)[C@H](O)[C@H]3O)cc(O)c3c(=O)cc(-c4ccccc4Cl)oc23)[C@H](O)C1`, the Activity result was “substrate []”.
As to `CN1CC[C@H](c2c(O)cc(O[C@@H]3O[C@H](C(=O)O)[C@@H](O)[C@H](O)[C@H]3O)c3c(=O)cc(-c4ccccc4Cl)oc23)[C@H](O)C1`, the Activity result was “substrate []”.
